From publication PMC3169398 (Acta Crystallographica Section F: Structural Biology and …, 2011)

Assays:
[1] = molecular target: T1, Bp PPAT (tagless, GPGS-ORF) (Burkholderia pseudomallei, UniProt Q3JW91); details: 2.0 M ammonium sulfate; 10 mM ATP added to protein; ligand carried over from E. coli host; active site; occupancy 0.5
T1 construct: gene coaD

[2] = molecular target: T2, Bp PPAT (tagged, MAHHHHHHMGTLEAQTQGPGS-ORF) (Burkholderia pseudomallei, UniProt Q3JW91); details: pH 4.6, 0.2 M ammonium sulfate, PEG 2000 MME; 1 mM coenzyme A added; active site; moiety of hydrolysed or disordered coenzyme A; weak density, adenine possibly partially occupied; may be part of disor
T2 construct: gene coaD
T2 sequence (Q3JW91 whole entry, looked up): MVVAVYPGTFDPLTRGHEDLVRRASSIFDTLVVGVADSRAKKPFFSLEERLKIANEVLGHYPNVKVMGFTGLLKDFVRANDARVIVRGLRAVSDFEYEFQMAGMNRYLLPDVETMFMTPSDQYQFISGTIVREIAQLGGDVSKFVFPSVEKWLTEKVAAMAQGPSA

T1 sequence (Q3JW91 whole entry, looked up): as above

Structure (SMILES)	X-ray crystal structure, 2.1 Å [1]	X-ray crystal structure, 1.6 Å [2]
CC(C)(COP(=O)(O)OP(=O)(O)OC[C@H]1O[C@@H](n2cnc3c(N)ncnc32)[C@H](O)[C@@H]1O)[C@@H](O)C(=O)NCCC(=O)NCCS [dephospho-coenzyme A]	clear evidence but weak electron density for dephospho-coenzyme A in the active site	
Nc1ncnc2[nH]cnc12 [adenine]		We noted modest omit electron density for the adenine ring, which was also modelled
